Results from ChEMBL document CHEMBL4321837, “Discovery of Potent and Orally Effective Dual Janus Kinase 2/FLT3 Inhibitors for the Treatment of Acute Myelogenous Leukemia and Myeloproliferative Neoplasms” (J Med Chem, 2019).
Active and inactive are the calls of the source. The rule behind the calls is not given here.

Columns and labels:
[1] = biological target: Tyrosine-protein kinase JAK1 (Homo sapiens, UniProt P23458); assay: Inhibition of human JAK1 (866 to end residues) assessed as residual activity at 100 nM using GEEPLYWSFPAKK as substrate after 40 mins in presence of [gamma33P]-ATP by scintillation counting based radiometric assay relative to control
[2] = biological target: T1, Tyrosine-protein kinase JAK3 (Homo sapiens) (UniProt P52333); assay: Inhibition of human JAK3 (781 to end residues) assessed as residual activity at 100 nM using GGEEEEYFELVKK as substrate after 40 mins in presence of [gamma33P]-ATP by scintillation counting based radiometric assay relative to control
T1 sequence (whole entry): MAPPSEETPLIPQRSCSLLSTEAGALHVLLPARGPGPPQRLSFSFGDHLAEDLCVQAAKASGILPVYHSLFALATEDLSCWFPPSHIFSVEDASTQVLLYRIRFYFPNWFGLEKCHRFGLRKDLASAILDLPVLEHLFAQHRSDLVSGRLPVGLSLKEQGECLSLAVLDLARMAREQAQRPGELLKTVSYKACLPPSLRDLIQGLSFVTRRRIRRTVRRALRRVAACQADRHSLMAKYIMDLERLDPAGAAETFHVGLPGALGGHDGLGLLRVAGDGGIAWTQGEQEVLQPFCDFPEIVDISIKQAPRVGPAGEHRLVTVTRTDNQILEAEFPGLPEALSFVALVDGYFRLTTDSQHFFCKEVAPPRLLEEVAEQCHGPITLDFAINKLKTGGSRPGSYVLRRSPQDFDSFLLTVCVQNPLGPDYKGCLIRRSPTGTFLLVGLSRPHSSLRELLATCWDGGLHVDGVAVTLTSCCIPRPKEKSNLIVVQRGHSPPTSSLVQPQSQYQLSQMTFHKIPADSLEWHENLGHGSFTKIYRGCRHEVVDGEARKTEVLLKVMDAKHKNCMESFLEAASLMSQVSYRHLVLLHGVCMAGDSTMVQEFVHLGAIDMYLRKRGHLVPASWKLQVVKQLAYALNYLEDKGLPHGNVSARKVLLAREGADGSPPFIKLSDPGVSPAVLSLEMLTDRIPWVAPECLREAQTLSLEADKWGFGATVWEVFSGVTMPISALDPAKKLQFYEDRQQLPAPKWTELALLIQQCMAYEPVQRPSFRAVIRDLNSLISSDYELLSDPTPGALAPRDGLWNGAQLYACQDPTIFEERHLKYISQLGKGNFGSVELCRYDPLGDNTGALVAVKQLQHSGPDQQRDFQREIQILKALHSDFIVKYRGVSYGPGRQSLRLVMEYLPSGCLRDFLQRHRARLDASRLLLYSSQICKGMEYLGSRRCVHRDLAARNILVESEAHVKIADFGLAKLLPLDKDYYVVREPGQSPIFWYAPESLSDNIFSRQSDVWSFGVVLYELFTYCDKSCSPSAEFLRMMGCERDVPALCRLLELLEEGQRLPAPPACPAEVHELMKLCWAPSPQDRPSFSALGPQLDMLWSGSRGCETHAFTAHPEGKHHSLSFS

[3] = biological target: T2, Tyrosine-protein kinase JAK3 (Homo sapiens, UniProt P52333); assay: Inhibition of human JAK3 (781 to end residues) using GGEEEEYFELVKK as substrate after 40 mins in presence of [gamma33P]-ATP by scintillation counting based radiometric assay
T2 sequence (P52333 whole entry): T1 sequence (whole entry)

[4] = Terminal elimination half life in Sprague-Dawley rat at 5 mg/kg, po measured up to 24 hrs by LC/MS/MS analysis; assay type: ADME, organism-based; conditions: in vivo, 24 h
[5] = biological target: Cytochrome P450 3A4 (Homo sapiens, UniProt P08684); assay: Inhibition of CYP3A4 (unknown origin); assay type: ADME
[6] = biological target: CDK6/cyclin D3 (Homo sapiens, UniProt Q00534); assay: Inhibition of recombinant full length human CDK6/CyclinD3 using histone H1 as substrate incubated for 30 mins in presence of [gamma33P]-ATP by scintillation counting based radiometry assay; assay type: protein-complex assay
[7] = biological target: Tyrosine-protein kinase Lyn (Homo sapiens, UniProt P07948); assay: Inhibition of recombinant full length human LYN using poly(Glu, Tyr) 4:1 as substrate incubated for 40 mins in presence of [gamma33P]-ATP by scintillation counting based radiometry assay
[8] = biological target: Voltage-gated inwardly rectifying potassium channel KCNH2 (Homo sapiens, UniProt Q12809); assay: Inhibition of human ERG
[9] = system: L02; assay: Cytotoxicity against human LO2 cells assessed as cell viability after 72 hrs by MTT assay; assay type: cell-based; conditions: l02, 72 h
[10] = biological target: JAK3/JAK1 (Homo sapiens, UniProt P23458+P52333); assay: Inhibition of JAK1/JAK3 in human THP-1 cells assessed as reduction in IL-4-induced STAT6 phosphorylation by flow cytometry; assay type: cell-based
[11] = biological target: Cytochrome P450 2D6 (Homo sapiens, UniProt P10635); assay: Inhibition of CYP2D6 (unknown origin); assay type: ADME
[12] = biological target: Cytochrome P450 2E1 (Homo sapiens, UniProt P05181); assay: Inhibition of CYP2E1 (unknown origin); assay type: ADME
[13] = Half life in rat liver microsomes; assay type: ADME, Microsome
[14] = Half life in dog liver microsomes; assay type: ADME, Canis lupus familiaris, Microsome
[15] = Intrinsic clearance in mouse liver microsomes; assay type: ADME, Microsome
[16] = Intrinsic clearance in monkey liver microsomes; assay type: ADME, Macaca mulatta, Microsome; conditions: rhesus monkey
[17] = system: MV4-11; assay: Inhibition of JAK2/FLT3 ITD mutant in human MV4-11 cells assessed as reduction in FLT3 phosphorylation after 2 hrs by Western blot analysis; assay type: cell-based
[18] = species on record: Homo sapiens; assay: Inhibition of JAK2 V617F mutant/FLT3 in human SET2 cells assessed as reduction in JAK2 phosphorylation at 0.2 uM after 2 hrs by Western blot analysis; assay type: cell-based
[19] = system: MV4-11; assay: Induction of cell cycle arrest in human MV4-11 cells assessed as accumulation at S phase at 0.01 uM after 24 hrs by propidium iodide staining based flow cytometry analysis (reference value: 30.11%); assay type: functional
[20] = system: MV4-11; assay: Induction of cell cycle arrest in human MV4-11 cells assessed as accumulation at G0/G1 phase at 0.1 uM after 24 hrs by propidium iodide staining based flow cytometry analysis (reference value: 54.49%); assay type: functional
[21] = system: MV4-11; assay: Induction of apoptosis in human MV4-11 cells assessed as viable cells at 0.05 uM after 24 hrs by Annexin V FITC/PI staining based flow cytometry analysis (reference value: 96.3%); assay type: functional; conditions: MV4-11, 24 h, read-out: Activity
[22] = system: MV4-11; assay: Induction of apoptosis in human MV4-11 cells assessed as early apoptotic cells at 1.6 uM after 24 hrs by Annexin V FITC/PI staining based flow cytometry analysis (reference value: 2.14%); assay type: functional
[23] = system: MV4-11; assay: Induction of apoptosis in human MV4-11 cells assessed as necrotic cells at 1.6 uM after 24 hrs by Annexin V FITC/PI staining based flow cytometry analysis (reference value: 0.18%); assay type: functional
[24] = Toxicity in NOD/SCID mouse xenografted with human SET2 cells overexpressing JAK2 V617F mutant assessed as animal survival at 30 to 60 mg/kg, po qd for 18 days; assay type: organism-based; conditions: in vivo

Chain of Tyrosine-protein kinase Lyn (P07948 whole entry): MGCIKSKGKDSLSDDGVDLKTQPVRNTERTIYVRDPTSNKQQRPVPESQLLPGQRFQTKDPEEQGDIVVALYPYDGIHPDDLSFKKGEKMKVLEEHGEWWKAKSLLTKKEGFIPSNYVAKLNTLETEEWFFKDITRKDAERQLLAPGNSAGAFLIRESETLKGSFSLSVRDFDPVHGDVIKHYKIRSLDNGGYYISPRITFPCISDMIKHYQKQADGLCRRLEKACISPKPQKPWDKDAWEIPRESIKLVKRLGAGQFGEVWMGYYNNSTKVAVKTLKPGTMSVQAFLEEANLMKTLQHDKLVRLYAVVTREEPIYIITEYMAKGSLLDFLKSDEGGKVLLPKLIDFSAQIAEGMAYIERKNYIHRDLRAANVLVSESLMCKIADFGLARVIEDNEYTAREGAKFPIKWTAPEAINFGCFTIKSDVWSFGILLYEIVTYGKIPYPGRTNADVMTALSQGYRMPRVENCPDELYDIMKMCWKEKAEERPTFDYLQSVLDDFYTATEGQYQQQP
Chain of Cytochrome P450 2E1 (P05181 whole entry): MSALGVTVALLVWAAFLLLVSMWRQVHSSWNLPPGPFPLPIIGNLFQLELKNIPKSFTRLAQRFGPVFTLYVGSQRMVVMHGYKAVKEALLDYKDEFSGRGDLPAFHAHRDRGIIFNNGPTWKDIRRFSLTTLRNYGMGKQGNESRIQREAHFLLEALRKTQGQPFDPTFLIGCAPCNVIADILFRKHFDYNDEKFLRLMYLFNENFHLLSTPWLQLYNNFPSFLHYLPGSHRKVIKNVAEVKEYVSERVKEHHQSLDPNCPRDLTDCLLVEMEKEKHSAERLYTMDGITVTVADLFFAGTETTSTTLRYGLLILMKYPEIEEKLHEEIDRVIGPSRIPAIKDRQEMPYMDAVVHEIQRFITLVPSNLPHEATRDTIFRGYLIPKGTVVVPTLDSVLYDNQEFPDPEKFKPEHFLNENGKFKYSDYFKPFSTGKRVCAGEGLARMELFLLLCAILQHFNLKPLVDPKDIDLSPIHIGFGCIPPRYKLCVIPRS
Chain of Voltage-gated inwardly rectifying potassium channel KCNH2 (Q12809 whole entry): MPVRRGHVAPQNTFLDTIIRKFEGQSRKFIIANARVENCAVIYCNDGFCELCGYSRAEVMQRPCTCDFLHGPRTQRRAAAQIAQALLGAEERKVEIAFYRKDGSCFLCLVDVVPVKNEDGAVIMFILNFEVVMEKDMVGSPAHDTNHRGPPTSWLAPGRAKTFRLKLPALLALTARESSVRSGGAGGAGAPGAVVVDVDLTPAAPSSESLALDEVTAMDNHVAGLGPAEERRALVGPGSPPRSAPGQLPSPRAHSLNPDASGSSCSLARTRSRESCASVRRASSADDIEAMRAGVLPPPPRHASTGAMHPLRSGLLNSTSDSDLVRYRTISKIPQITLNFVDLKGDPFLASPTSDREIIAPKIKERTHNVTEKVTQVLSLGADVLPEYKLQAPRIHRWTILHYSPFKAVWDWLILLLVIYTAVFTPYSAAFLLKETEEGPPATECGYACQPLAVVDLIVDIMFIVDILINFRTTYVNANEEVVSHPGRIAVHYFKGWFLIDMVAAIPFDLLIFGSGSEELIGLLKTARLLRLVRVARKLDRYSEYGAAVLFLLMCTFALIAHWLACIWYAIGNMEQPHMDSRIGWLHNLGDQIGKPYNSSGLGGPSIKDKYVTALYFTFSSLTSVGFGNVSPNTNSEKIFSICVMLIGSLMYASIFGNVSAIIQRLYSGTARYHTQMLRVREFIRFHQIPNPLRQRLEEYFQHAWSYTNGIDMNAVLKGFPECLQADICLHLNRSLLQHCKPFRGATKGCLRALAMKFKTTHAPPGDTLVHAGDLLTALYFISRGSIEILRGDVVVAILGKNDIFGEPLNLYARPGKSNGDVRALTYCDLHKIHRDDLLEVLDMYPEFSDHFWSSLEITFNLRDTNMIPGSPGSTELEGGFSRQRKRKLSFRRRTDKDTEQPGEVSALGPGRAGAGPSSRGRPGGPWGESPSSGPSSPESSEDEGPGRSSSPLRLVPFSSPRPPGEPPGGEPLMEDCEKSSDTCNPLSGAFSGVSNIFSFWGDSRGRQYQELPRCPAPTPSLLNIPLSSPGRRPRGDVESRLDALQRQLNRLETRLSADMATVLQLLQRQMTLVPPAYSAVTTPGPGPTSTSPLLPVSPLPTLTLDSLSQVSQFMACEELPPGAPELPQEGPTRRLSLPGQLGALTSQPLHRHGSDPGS
Chain of Cytochrome P450 3A4 (P08684 whole entry): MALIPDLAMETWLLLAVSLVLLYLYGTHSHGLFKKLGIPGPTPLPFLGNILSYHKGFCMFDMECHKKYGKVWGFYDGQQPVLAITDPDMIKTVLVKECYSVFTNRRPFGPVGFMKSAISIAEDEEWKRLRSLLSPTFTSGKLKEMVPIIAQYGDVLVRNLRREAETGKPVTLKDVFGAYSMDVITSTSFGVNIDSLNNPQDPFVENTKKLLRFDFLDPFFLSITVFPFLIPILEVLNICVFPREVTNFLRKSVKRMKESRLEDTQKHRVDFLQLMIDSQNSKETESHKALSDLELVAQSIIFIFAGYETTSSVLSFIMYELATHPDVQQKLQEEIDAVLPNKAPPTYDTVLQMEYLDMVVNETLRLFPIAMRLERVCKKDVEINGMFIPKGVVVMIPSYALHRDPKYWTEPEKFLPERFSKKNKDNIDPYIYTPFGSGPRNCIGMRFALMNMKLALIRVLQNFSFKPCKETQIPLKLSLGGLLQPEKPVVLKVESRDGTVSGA
Chain of Cytochrome P450 2D6 (P10635 whole entry): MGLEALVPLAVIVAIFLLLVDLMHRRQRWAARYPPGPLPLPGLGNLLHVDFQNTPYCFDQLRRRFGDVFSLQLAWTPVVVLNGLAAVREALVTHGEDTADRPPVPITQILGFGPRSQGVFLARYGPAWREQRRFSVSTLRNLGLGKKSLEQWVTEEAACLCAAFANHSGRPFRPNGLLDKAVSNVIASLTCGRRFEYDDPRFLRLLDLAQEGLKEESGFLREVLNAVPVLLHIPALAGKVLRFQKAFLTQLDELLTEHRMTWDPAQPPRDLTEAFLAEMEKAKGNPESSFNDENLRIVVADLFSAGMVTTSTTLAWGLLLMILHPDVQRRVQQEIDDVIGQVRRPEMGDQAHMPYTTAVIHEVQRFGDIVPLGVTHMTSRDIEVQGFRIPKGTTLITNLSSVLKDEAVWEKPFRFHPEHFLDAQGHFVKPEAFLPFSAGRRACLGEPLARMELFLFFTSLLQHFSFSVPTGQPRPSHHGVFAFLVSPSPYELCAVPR
Chain of Tyrosine-protein kinase JAK1 (P23458 whole entry): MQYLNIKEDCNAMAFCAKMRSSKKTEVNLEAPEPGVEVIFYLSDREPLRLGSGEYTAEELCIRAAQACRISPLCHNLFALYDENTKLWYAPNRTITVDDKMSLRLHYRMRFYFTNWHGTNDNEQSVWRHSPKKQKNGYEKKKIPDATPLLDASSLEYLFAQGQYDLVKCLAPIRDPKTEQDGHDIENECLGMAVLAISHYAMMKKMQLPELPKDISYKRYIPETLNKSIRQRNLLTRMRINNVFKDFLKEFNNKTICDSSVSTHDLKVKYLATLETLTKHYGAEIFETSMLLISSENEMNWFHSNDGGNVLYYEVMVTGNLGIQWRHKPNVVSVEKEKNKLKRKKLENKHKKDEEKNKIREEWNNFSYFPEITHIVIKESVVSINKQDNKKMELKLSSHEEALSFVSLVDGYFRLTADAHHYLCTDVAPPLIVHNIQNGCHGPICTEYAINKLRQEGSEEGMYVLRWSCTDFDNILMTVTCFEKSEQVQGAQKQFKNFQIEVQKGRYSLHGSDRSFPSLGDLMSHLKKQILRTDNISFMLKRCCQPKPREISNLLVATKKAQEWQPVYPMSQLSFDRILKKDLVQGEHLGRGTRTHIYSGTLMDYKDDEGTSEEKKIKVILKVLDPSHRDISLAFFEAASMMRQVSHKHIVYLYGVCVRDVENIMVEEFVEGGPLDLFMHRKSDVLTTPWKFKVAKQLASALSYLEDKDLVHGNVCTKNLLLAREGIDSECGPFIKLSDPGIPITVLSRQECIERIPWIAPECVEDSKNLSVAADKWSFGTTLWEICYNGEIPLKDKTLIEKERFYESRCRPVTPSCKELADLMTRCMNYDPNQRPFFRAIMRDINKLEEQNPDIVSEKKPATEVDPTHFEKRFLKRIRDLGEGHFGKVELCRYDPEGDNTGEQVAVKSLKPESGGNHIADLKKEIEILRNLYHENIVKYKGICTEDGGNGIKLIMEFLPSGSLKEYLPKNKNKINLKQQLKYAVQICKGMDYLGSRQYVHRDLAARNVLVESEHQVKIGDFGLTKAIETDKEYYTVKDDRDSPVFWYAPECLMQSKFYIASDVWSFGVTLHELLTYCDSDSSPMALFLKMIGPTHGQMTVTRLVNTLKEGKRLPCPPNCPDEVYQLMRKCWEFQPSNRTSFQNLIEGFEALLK
Chain of JAK3/JAK1 (P23458 whole entry, one chain of several): as the sequence (P23458 whole entry) above
Chain of CDK6/cyclin D3 (P30281 whole entry): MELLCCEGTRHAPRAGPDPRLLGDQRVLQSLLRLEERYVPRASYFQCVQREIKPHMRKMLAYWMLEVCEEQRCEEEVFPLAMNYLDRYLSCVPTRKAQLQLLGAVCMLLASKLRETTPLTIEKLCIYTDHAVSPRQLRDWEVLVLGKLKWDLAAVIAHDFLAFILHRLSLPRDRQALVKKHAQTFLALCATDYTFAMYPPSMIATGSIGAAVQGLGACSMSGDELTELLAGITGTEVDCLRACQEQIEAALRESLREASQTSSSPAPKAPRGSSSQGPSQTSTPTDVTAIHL
Chain of CDK6/cyclin D3 (Q00534 whole entry): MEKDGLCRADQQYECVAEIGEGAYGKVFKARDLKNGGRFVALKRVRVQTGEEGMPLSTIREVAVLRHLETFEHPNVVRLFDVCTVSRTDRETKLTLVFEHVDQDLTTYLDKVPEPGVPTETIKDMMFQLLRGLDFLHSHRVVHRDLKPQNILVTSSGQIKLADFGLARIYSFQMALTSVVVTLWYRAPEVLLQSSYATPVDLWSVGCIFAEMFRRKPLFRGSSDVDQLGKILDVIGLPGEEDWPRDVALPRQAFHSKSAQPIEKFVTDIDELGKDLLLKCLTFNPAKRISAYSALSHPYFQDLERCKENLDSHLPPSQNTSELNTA

Which results are given for `Cc1cnc(Nc2ccc(N3CCC(N(C)CCO)CC3)c(F)c2)nc1-c1cnn(C(C)C)c1`?
Activity [1]: 25%; Activity [2]: 36%; IC50 [3]: 39 nM; beta t1/2 [4]: 4.1 h; IC50 [5]: > 100000 nM; IC50 [6]: 66 nM; IC50 [7]: 17 nM; IC50 [8]: 28000 nM; Activity [9]: Non-Toxic; IC50 [10]: 578 nM; IC50 [11]: > 100000 nM; IC50 [12]: > 100000 nM; half-life [13]: 12.8 h; half-life [14]: 3.12 h; CLH [15]: 1.8 µL/min/mg; CLH [16]: 0.5 µL/min/mg; inhibition [17]: Dose-dependent effect; inhibition [18]: Active; Activity [19]: 29.65%; Activity [20]: 84.71%; viability at 0.05 µM [21]: 89.6%; Activity [22]: 33.6%; Activity [23]: 0.68%; survival at 432 h [24]: 100%
